Where two headings read alike, the source gives them in different places.
Assays:
B-100 apolipoprotein = assay: Relative electrophoretic mobility of oxidized LDL on agarose gel (surface-negative charge of B-100 apolipoprotein); format: biochemical, human; conditions: 10 μM; for REM (%) at 180': 180 minutes; for REM (%) at 180' / REM (%) at 360': native LDL = 0, copper-oxidized LDL with ethanol at 360 minutes = 100; for REM (%) at 360': 360 minutes
Source text: The determination of the melting point has been carried out by means of a capillary melting point apparatus Electrothermal, without any correction. The I.R. spectrum has been obtained by means of a Perkin-Elmer rood. 963/G spectrophotometer generally, when not otherwise specified, preparing the specimen in potassium bromide and recording the spectrum between 4000 and 600 nm. […] The mass spectrum has been recorded by using a VG 7070E mass spectrometer, at a 70 eV ionization voltage and with a 6 Kvolt acceleration voltage. […] Chem., 43, 2923, (1978). […] The antioxidant activity has been evaluated through the capability of some lactones of formula I to prevent and/or delay the oxidative modification of the lipoproteins (LDL), caused by a chemical method by incubating native LDL with cupric ions, according to the method described by Steinbrecher U. P. in J. Biol. Chem., 262, 3603-3608, (1987). The evaluation of the oxidation degree of the LDL through the monitoring of the concentration of aldehydes derived from the degradation of the lipidic peroxides and the observation of the modifications of the B-100 apolipoprotein represent the used experimental approach. The antioxidant activity of the lactones has been expressed in terms of duration of the latency period that represents a parameter of the resistance to the oxidation of the LDL. The LDL have been isolated from the human plasma obtained from blood collected, in the presence of EDTA, from healty volunteers fasting from 8 hours according to the method described by Havel H. in J. Clin. Invest., 34, 1345-1353, (1955). The solution, dialyzed in Visking-Serva dialysis tubes at 4° C. for 72 hours in phosphate buffer (PBS) added with EDTA (0.24 mM), has been filtered through a membrane with 0.45μ porosity (Millex HV Filters) and the proteic concentration has been determined according to the method described by Lowry O. et al. in J. Biol. Chem., 193, 265-275, (1951). The solution has been diluted with PBS-EDTA at a concentration of 500 μg protein/ml and the obtained LDL have been incubated at 42° C. for 45 minutes in presence of the lactones solubilized in ethanol (1.7 μl/ml LDL). At the end of the incubation the solutions have been placed on ice for 45 minutes and dialyzed at 4° C. for 36 hours in PBS. The oxidation of the LDL has been carried out with 5 μM cupric sulfate at 37° C. and stopped at the experimental times by cooling at 4° C. and adding 0.24 mM of EDTA. The solutions of LDL have been kept at 4° C. and sheltered from light during the experimental procedure. […] 52, (1978).
The inhibition of the oxidative process has also been qualitatively studied through the evaluation of the modification of the surface-negative charge of the B-100 apolipoprotein by electrophoretic analysis on agarose gel, by using the method described in the kit "Titan gel Multi-slot lipo-17 electrophoresis system" (Cat. no. 3095), manufactured by Helena Laboratories.
The Bio-Phoresis Horizontal Electrophoresis Cell Bio-Rad (Cat. no. 1702900) has been used as electrophoretic cell. The modification of the surface-negative charge of the B-100 apolipoprotein, caused by the oxidation of the LDL, produces an increase of the anionic electrophoretic mobility. Therefore the evaluation of the varying of this electrophoretic datum, mobility in presence of antioxidant substances, represents an indirect measure of the antioxidant capabilities of the claimed compounds as reported by Vanderyse L. et al. in Atherosclerosis, 97, 187-199, (1992). […] The migration of the native LDL is taken as a reference equal to 0 (no electrophoretic migration), while the migration of the band of the copper-oxidized LDL at the time of 360 minutes, only in presence of ethanol, is taken as reference equal to 100.

HepG2 = assay: Incorporation of 14C-acetate in the lipidic classes in HepG2 cells (hypolipidaemic activity); format: cell-based, human; conditions: for Incorporation of 14C-acetate: Cholesterol / Incorporation of 14C-acetate: Esters of Cholesterol / Incorporation of 14C-acetate: Fatty acids / Incorporation of 14C-acetate: Phospholipids / Incorporation of 14C-acetate: Triglycerides: per culture plate; for inhibition at 1 µM / inhibition at 10 µM: Homo sapiens, HepG2; for interference with the synthesis of cholesterol: compared with gemfibrozil and probucol; for influence on the synthesis of the fatty acids and of the phospholipids: compared with probucol and gemfibrozil; for activity as regards the synthesis of the esters of the cholesterol: summary of Table 4
Experimental: The hypolipidaemic activity of some lactones of general formula I has been evaluated in vitro by testing their influence on the synthesis of the cell lipids like cholesterol, fatty acids, triglycerides, phospholipids and esters of the cholesterol, described by Barnhard J. W. in Amer. J. Cardiol., 62, 52B-56B, (1988).
The synthesis of the lipids has been studied by incubating cells coming from a human hepatocarcinoma (HepG2-American Type Culture Collection) in presence of ^14 C-acetate (Amersham) and by measuring the incorporation of the radioactive precursor in the main lipidic classes by means of chromatographic separation on silica gel (Merck F254), according to the method described by Skipski V. P. et al. in Biochem. Biophys. Acta, 106, 386-396, (1965) and by means of scintillographic dosage with β-counter Beckman scintillator, according to the method reported by Gherardi E. and Calandra S. in Lipids, 15, 108-112, (1980).
The data reported in tables 4 and 5 refer to the incorporation of ^14 C-acetate in the various lipidic classes, expressed as radioactivity in count per minute (cpm) for culture plate, for some lactones, in comparison with the probucol and the gemfibrozil, used as positive controls and with the solvent ethanol, used as negative control.
The percents in brackets express the lowering of the ^14 C-acetate in the various lipidic classes referred to the control, i.e. to the physiological solution. […] The confluence cells have been exposed to the products tested for 24 hours; at the end of the incubation the monolayer has been solubilized and the optical density of the lysate at λ260 nm has been measured. The value of the absorbance is direct function of the amount of the macromolecules present and therefore indirectly of the number of the cells.

[1] = tested on: Watanabe rabbits, suffering from familial hypercholesterolaemia; conditions: cited from earlier work
LDL = conditions: in vitro, LDL incubated with antioxidizer; cited from earlier work
[2] = 1 μM, read-out: Incorporation of 14C-acetate: Cholesterol, percent referred to physiological solution
[3] = 1 μM, read-out: Incorporation of 14C-acetate: Esters of Cholesterol, percent referred to physiological solution
[4] = 1 μM, read-out: Incorporation of 14C-acetate: Fatty acids, percent referred to physiological solution
[5] = 1 μM, read-out: Incorporation of 14C-acetate: Phospholipids, percent referred to physiological solution
[6] = 1 μM, read-out: Incorporation of 14C-acetate: Triglycerides, percent referred to physiological solution
[7] = 10 μM, read-out: Incorporation of 14C-acetate: Cholesterol, percent referred to physiological solution
[8] = 10 μM, read-out: Incorporation of 14C-acetate: Esters of Cholesterol, percent referred to physiological solution
[9] = 10 μM, read-out: Incorporation of 14C-acetate: Fatty acids, percent referred to physiological solution
[10] = 10 μM, read-out: Incorporation of 14C-acetate: Phospholipids, percent referred to physiological solution
[11] = 10 μM, read-out: Incorporation of 14C-acetate: Triglycerides, percent referred to physiological solution

SMILES | REM (%) at 180' (B-100 apolipoprotein) | REM (%) at 360' (B-100 apolipoprotein) | Incorporation of 14C-acetate: Cholesterol (HepG2; 1 μM) | Incorporation of 14C-acetate: Esters of Cholesterol (HepG2; 1 μM) | Incorporation of 14C-acetate: Fatty acids (HepG2; 1 μM) | Incorporation of 14C-acetate: Phospholipids (HepG2; 1 μM) | Incorporation of 14C-acetate: Triglycerides (HepG2; 1 μM) | Incorporation of 14C-acetate: Cholesterol (HepG2; 10 μM) | Incorporation of 14C-acetate: Esters of Cholesterol (HepG2; 10 μM) | Incorporation of 14C-acetate: Fatty acids (HepG2; 10 μM) | Incorporation of 14C-acetate: Phospholipids (HepG2; 10 μM) | Incorporation of 14C-acetate: Triglycerides (HepG2; 10 μM) | inhibition at 1 µM (HepG2; [2]) | inhibition at 1 µM (HepG2; [3]) | inhibition at 1 µM (HepG2; [4]) | inhibition at 1 µM (HepG2; [5]) | inhibition at 1 µM (HepG2; [6]) | inhibition at 10 µM (HepG2; [7]) | inhibition at 10 µM (HepG2; [8]) | inhibition at 10 µM (HepG2; [9]) | other results
Cc1c(C)c2c(c(C)c1O)CCC(C)OC(=O)C(C)(C)CCCO2 (centres unmarked) [Example 3, 6,6,9,13,15,16-Hexamethyl-14-hydroxy-2,8-dioxabicyclo[10.4.0]hexadec-12,14,16-trien-7-one] | 15% | 30% | 23364 cpm | 1347 cpm | 473 cpm | 181053 cpm | 109681 cpm | 19034 cpm | 1107 cpm | 368 cpm | 195274 cpm | 104271 cpm | 26% | 67% | 29% | 27% | 1% | 40% | 73% | 45% | lowering of electrophoretic mobility of LDL compared with probucol (B-100 apolipoprotein): remarkably more effective than probucol; influence on the synthesis of the triglycerides (HepG2): practically absent; inhibition at 10 µM (HepG2; [10]): 22%; inhibition at 10 µM (HepG2; [11]): 4%; interference with the synthesis of cholesterol (HepG2): comparable to that of gemfibrozil and lower than that of the probucol; influence on the synthesis of the fatty acids and of the phospholipids (HepG2): practically show the same influence; activity as regards the synthesis of the esters of the cholesterol (HepG2): 60-75%
CCC1CCc2c(C)c(O)c(C)c(C)c2OCCCC(C)(C)C(=O)O1 (centres unmarked) [Example 6, 9-Ethyl-14-hydroxy-6,6,13,15,16-pentamethyl-2,8-dioxabicyclo[10.4.0]hexadec-12,14,16-trien-7-one] | 15% | 30% | 23597 cpm | 1098 cpm | 386 cpm | 160997 cpm | 107497 cpm | 17458 cpm | 1148 cpm | 332 cpm | 177323 cpm | 110154 cpm | 25% | 73% | 42% | 35% | 1% | 45% | 72% | 50% | lowering of electrophoretic mobility of LDL compared with probucol (B-100 apolipoprotein): remarkably more effective than probucol; influence on the synthesis of the triglycerides (HepG2): practically absent; inhibition at 10 µM (HepG2; [10]): 29%; inhibition at 10 µM (HepG2; [11]): -1%; interference with the synthesis of cholesterol (HepG2): comparable to that of gemfibrozil and lower than that of the probucol; influence on the synthesis of the fatty acids and of the phospholipids (HepG2): practically show the same influence; activity as regards the synthesis of the esters of the cholesterol (HepG2): 60-75%
CC(C)(Sc1cc(C(C)(C)C)c(O)c(C(C)(C)C)c1)Sc1cc(C(C)(C)C)c(O)c(C(C)(C)C)c1 [Probucol, reference compound] | 40% | 100% | 14360 cpm | 1887 cpm | 429 cpm | 173426 cpm | 100202 cpm | 11389 cpm | 2635 cpm | 394 cpm | 173329 cpm | 105097 cpm | 55% | 54% | 36% | 31% | 8% | 64% | 35% | 42% | LDL plasma levels [1]: does not substantially modify the LDL plasma levels; atheromatous lesions [1]: lowers the atheromatous lesions; atherogenic potentialities of the LDL (LDL): remarkably lowered; inhibition at 10 µM (HepG2; [10]): 31%; inhibition at 10 µM (HepG2; [11]): 3%; activity as regards the synthesis of the esters of the cholesterol (HepG2): 35-45%
